The source made the active and inactive calls. The rule behind the calls is not given here.
Assays:
MCF7 [1] = experiment: Induction of ferroptosis in human MCF7 cells assessed as decrease in GPX4 expression at 3 uM incubated for 24 hrs in presence of fer-1 by Western blot analysis; assay type: functional, cell-based
MCF7 [2] = experiment: Induction of ferroptosis in Nur77 knockout human MCF7 cells assessed as […] incubated for 24 hrs by Western blot analysis; assay type: functional, cell-based
BT-549 = experiment: cells; details: Homo sapiens, BT-549, 24 h
Description: Antiproliferative activity against human BT-549 cells assessed as inhibition of cell growth incubated for 24 hrs by MTT assay

MCF7 [3] = experiment: Upregulation of Nur77 protein expression in human MCF7 cells at 3 to 6 uM measured at 2 hrs by Western blot assay; assay type: functional, cell-based; details: dose 3-6 µM
[4] = Cmax in nude BALB/c mouse at 20 mg/kg, IG measured after 24 hrs; assay type: ADME, organism-based; details: in vivo, po
MCF7 [5] = experiment: Induction of ferroptosis in human MCF7 cells assessed as increase in malondialdehyde level at 1.5 to 4.5 uM incubated for 24 hrs by MDA assay; assay type: functional, cell-based; details: dose 1.5-4.5 µM
MCF7 [6] = experiment: Induction of apoptosis in human MCF7 cells assessed as early apoptotic cells at 6 uM incubated for 24 hrs by Annexin V-FITC/PI staining based flow cytometry analysis (Rvb =0.82%); assay type: functional
MCF7 [7] = experiment: Induction of apoptosis in human MCF7 cells assessed as late apoptotic cells at 3 uM incubated for 24 hrs by Annexin V-FITC/PI staining based flow cytometry analysis (Rvb =0.86%); assay type: functional
HCT-116 = experiment: Antiproliferative activity against human HCT-116 cells assessed as inhibition of cell growth by MTT assay
MCF7 [8] = experiment: Induction of ferroptosis in Nur77 knockout human MCF7 cells assessed as […] at 3 uM incubated for 24 hrs by BODIPYTM 581/591C11 probe based flow cytometry analysis; assay type: functional, cell-based
[9] = Toxicity in nude BALB/c mouse xenografted with human MCF7 cells assessed as change in body weight at 10 to 20 mg/kg/day, IG administered on alternative days for 21 days; assay type: organism-based; details: in vivo, po, 504 h, dose 10-20 mg/kg/day, time 21 day
[10] = Toxicity in nude BALB/c mouse xenografted with human MCF7 cells assessed as appearance of intact hepatic lobules with central veins and cords of radiating hepatocytes at 10 to 20 mg/kg/day, IG administered on alternative days for 21 days by H and E staining analysis; assay type: organism-based; details: in vivo, po, 504 h, dose 10-20 mg/kg/day, time 21 day
MCF7 [11] = experiment: Inhibition of colony formation in human MCF7 cells at 4.5 uM incubated for 3 days by crystal violet staining based analysis relative to control; assay type: functional; details: MCF7, 72 h, time 3 day
MDA-MB-231 = experiment: cells; details: Homo sapiens, MDA-MB-231, 24 h
Description: Antiproliferative activity against human MDA-MB-231 cells assessed as inhibition of cell growth incubated for 24 hrs by MTT assay

MCF7 [12] = experiment: Antitumor activity against human MCF7 cells xenografted in nude BALB/c mouse assessed as tumor growth inhibition at 20 mg/kg/day, IG administered on alternative days for 21 days relative to control; assay type: functional; details: MCF7, po, 504 h, time 21 day, read-out: TGI
MCF7 [13] = experiment: Induction of ROS production in human MCF7 cells at 3 uM incubated for 24 hrs by DCFH-DA staining based flow cytometric analysis; assay type: functional, cell-based
MCF7 [14] = experiment: Cytotoxicity in Nur77 knockout human MCF7 cells at 1 to 3 uM incubated for 24 hrs by MTT assay; assay type: functional, cell-based; details: dose 1-3 µM
T47D [15] = experiment: cells; details: Homo sapiens, 24 h
Description: Antiproliferative activity against human T47D cells assessed as inhibition of cell growth incubated for 24 hrs by MTT assay

MCF7 [16] = experiment: Induction of apoptosis in human MCF7 cells assessed as necrotic cells at 3 uM incubated for 24 hrs by Annexin V-FITC/PI staining based flow cytometry analysis (Rvb =0.2%); assay type: functional
MCF7 [17] = experiment: Induction of ferroptosis in human MCF7 cells assessed as accumulation of lipid peroxidation at 3 uM incubated for 24 hrs by BODIPYTM 581/591C11 probe based inverted fluorescence microscopic analysis; assay type: functional, cell-based
T47D [18] = experiment: Induction of ferroptosis in human T47D cells assessed as increase in malondialdehyde level at 1.5 to 4.5 uM incubated for 24 hrs by MDA assay; assay type: functional, cell-based; details: dose 1.5-4.5 µM
HepG2 [19] = experiment: Induction of ferroptosis in Nur77 knockout human HepG2 cells assessed as increase in GPX4 expression at 3 uM incubated for 24 hrs by Western blot analysis; assay type: functional, cell-based
MCF7 [20] = experiment: Induction of apoptosis in human MCF7 cells assessed as necrotic cells at 6 uM incubated for 24 hrs by Annexin V-FITC/PI staining based flow cytometry analysis (Rvb =0.2%); assay type: functional
HepG2 [21] = experiment: Induction of ferroptosis in human HepG2 cells assessed as decrease in GPX4 expression at 3 uM incubated for 24 hrs by Western blot analysis; assay type: functional, cell-based
HepG2 [22] = experiment: Antiproliferative activity against human HepG2 cells assessed as inhibition of cell growth by MTT assay
MCF7 [23] = experiment: Induction of apoptosis in human MCF7 cells assessed as early apoptotic cells at 3 uM incubated for 24 hrs by Annexin V-FITC/PI staining based flow cytometry analysis (Rvb =0.82%); assay type: functional
MCF7 [24] = experiment: Antiproliferative activity against human MCF7 cells assessed as inhibition of cell growth at 50 uM by MTT assay relative to control; assay type: functional
MCF7 [25] = experiment: Antitumor activity against human MCF7 cells xenografted in nude BALB/c mouse assessed as increase in Nur77 level in tumor at 10 to 20 mg/kg/day, IG administered on alternative days for 21 days by immunohistochemical analysis; assay type: functional, organism-based; details: dose 10-20 mg/kg/day, time 21.0 day
MCF7 [26] = experiment: Induction of ferroptosis in human MCF7 cells assessed as effect on SLC7A11 expression at 3 uM incubated for 24 hrs in presence of fer-1 by Western blot analysis; assay type: functional, cell-based
MCF7 [27] = experiment: Antitumor activity against human MCF7 cells xenografted in nude BALB/c mouse assessed as tumor growth inhibition at 10 mg/kg/day, IG administered on alternative days for 21 days relative to control; assay type: functional; details: MCF7, po, 504 h, time 21 day, read-out: TGI
MCF7 [28] = experiment: cells; details: Homo sapiens, MCF7, 24 h
Description: Antiproliferative activity against human MCF7 cells assessed as inhibition of cell growth incubated for 24 hrs by MTT assay

MCF7 [29] = experiment: Induction of apoptosis in human MCF7 cells assessed as viable cells at 6 uM incubated for 24 hrs by Annexin V-FITC/PI staining based flow cytometry analysis (reference value: 98.1%); assay type: functional; details: read-out: Activity
MCF7 [30] = experiment: Induction of ferroptosis in Nur77 knockout human MCF7 cells assessed as accumulation of lipid peroxidation at 3 uM incubated for 24 hrs by BODIPYTM 581/591C11 probe based inverted fluorescence microscopic analysis; assay type: functional, cell-based
[31] = AUC (0 to infinity) in nude BALB/c mouse at 20 mg/kg, IG measured after 24 hrs; assay type: ADME, organism-based; details: in vivo, po
MCF7 [32] = experiment: Induction of apoptosis in human MCF7 cells assessed as late apoptotic cells at 6 uM incubated for 24 hrs by Annexin V-FITC/PI staining based flow cytometry analysis (Rvb =0.86%); assay type: functional
[33] = Cytotoxicity in HaCaT cells assessed as inhibition of cell growth by MTT assay; assay type: toxicity, cell-based; details: human
MCF7 [34] = experiment: Anticancer activity in human MCF7 cells assessed as cell viability at 3 uM in presence of DFO by MTT assay; assay type: functional, cell-based
MCF7 [35] = experiment: Antiproliferative activity against Nur77 knockout human MCF7 cells at 3 uM incubated for 24 hrs by EdU staining based analysis; assay type: functional, cell-based
MCF7 [36] = experiment: Induction of ROS production in Nur77 knockout human MCF7 cells at 3 uM incubated for 24 hrs by DCFH-DA staining based flow cytometric analysis; assay type: functional, cell-based
MCF7 [37] = experiment: Upregulation of Nur77 protein expression in human MCF7 cells at 3 uM measured at 2 to 10 hrs by Western blot assay; assay type: functional, cell-based; details: time 2-10 hrs
MCF7 [38] = experiment: Anticancer activity in human MCF7 cells assessed as reduction in cell viability at 3 uM in presence of fer-1 by MTT assay; assay type: functional, cell-based
[39] = Half life in nude BALB/c mouse at 20 mg/kg, IG measured after 24 hrs; assay type: ADME, organism-based; details: in vivo, po
MCF7 [40] = experiment: Antitumor activity against human MCF7 cells xenografted in nude BALB/c mouse assessed as decrease in GPX4 level in tumor at 10 to 20 mg/kg/day, IG administered on alternative days for 21 days by immunohistochemical analysis; assay type: functional, organism-based; details: dose 10-20 mg/kg/day, time 21.0 day
MCF7 [41] = experiment: Induction of apoptosis in human MCF7 cells assessed as viable cells at 3 uM incubated for 24 hrs by Annexin V-FITC/PI staining based flow cytometry analysis (reference value: 98.1%); assay type: functional; details: read-out: Activity
[42] = Cytotoxicity in human MCF-10A cells assessed as inhibition of cell growth by MTT assay; assay type: toxicity, cell-based

O=C(Nc1ccc(C(=O)N/N=C/c2cccc(Cl)c2)cc1)Nc1ccc2ncccc2c1
Activity (MCF7 [1]): Active | Activity (MCF7 [2]): Active | IC50 (BT-549): 3.93 µM | Activity (MCF7 [3]): Active | Cmax [4]: 37.5 ng/mL | Activity (MCF7 [5]): Active | Activity (MCF7 [6]): 1.29% | Activity (MCF7 [7]): 1.65% | IC50 (HCT-116): 3.26 µM | Activity (MCF7 [8]): Active | Activity [9]: Non-toxic | Activity [10]: Non-toxic | inhibition at 4.5 µM (MCF7 [11]): 100% | IC50 (MDA-MB-231): 3.14 µM | inhibition in vivo at 20 mg/kg/day (MCF7 [12]): 49% | Activity (MCF7 [13]): Active | Activity (MCF7 [14]): Active; Compound Showed Weak Activity Compared To Wild-Type Cells | IC50 (T47D [15]): 5.57 µM | Activity (MCF7 [16]): 0.27% | Activity (MCF7 [17]): Active | Activity (T47D [18]): Active | Activity (HepG2 [19]): Active | Activity (MCF7 [20]): 0.34% | Activity (HepG2 [21]): Active | IC50 (HepG2 [22]): 2.15 µM | Activity (MCF7 [23]): 0.8% | inhibition at 50 µM (MCF7 [24]): 81% | Activity (MCF7 [25]): Active | Activity (MCF7 [26]): Active | inhibition in vivo at 10 mg/kg/day (MCF7 [27]): 43.5% | IC50 (MCF7 [28]): 2.3 µM | viability at 6 µM (MCF7 [29]): 94.3% | Activity (MCF7 [30]): inactive | AUC(0-inf) [31]: 58.8 ng·h/mL | Activity (MCF7 [32]): 4.1% | IC50 [33]: > 50 µM | Activity (MCF7 [34]): Active | Activity (MCF7 [35]): Active; Compound Showed Weak Activity Compared To Wild-Type Cells | Activity (MCF7 [36]): inactive | Activity (MCF7 [37]): inactive | Activity (MCF7 [38]): Active | half-life [39]: 1.49 h | Activity (MCF7 [40]): Active | viability at 3 µM (MCF7 [41]): 97.3% | IC50 [42]: > 50 µM

— ChEMBL document CHEMBL6182894, “Design, synthesis, and biological evaluation of quinolinyl-ureido-phenyl-hydrazide derivatives and quinolinyl-hydrazide derivatives as anticancer agents targeting Nur77-mediated ferroptosis” (Eur J Med Chem, 2025)
